Legend:
[1] = target: GST-tagged KRAS-G12V (2-169) (Homo sapiens, UniProt P01116, G12V); test: Nucleotide exchange assay (NEA), SOS-mediated, HTRF, KRAS G12V; format: biochemical; conditions: Table 4; IC50 extracted at 90 min; 80 nM SOS
Summary of the method: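 GST-KRAS-G12V (2-169), 0.25 nM, pre-incubated 1 h at RT with compound, then SOS1cat (564-1049) 80 nM and GTP-DY-647P1 150 nM added in HEPES pH 7.3 buffer with MgCl2 and DTT. HTRF via anti-GST Tb cryptate read over 90 min; IC50 from 4-parameter fit at 90 min, blanked to no-SOS reactions.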

[2] = system: phospho-ERK in SW620 (KRAS-G12V) cells; test: pERK In Cell Western (ICW) assay (Method B), SW620; format: cell-based; conditions: Homo sapiens, SW-620, 3 h, Table 4
Protocol: pERK ICW is a high throughput screening assay to evaluate the cellular potency of mutant KRAS small molecule inhibitors. KRAS mutant cell lines AGS, GP2D (KRAS-G12D) as well as SW620 (KRAS-G12V) were purchased from ATCC and maintained respectively in RPMI/DMEM/RPMI medium supplemented with 10% fetal bovine serum.
Cells grown in exponential phase were trypsinized, resuspended in fresh media, and viable cells were counted using a cell counter with Trypan Blue (BioRad TC20). Cells were seeded into 384-well plate (Greiner 781091) at density of 5,000 cells/well for AGS and 10,000 cells/well for GP2D/SW620 and allowed to grow overnight in a 37° C. CO2 incubator. The next day, compounds were dispensed into wells with a ½ log, 9-point serial dilution using a Tecan D300e dispenser and incubated for 3 hours in a 37° C. CO2 incubator. Cells were then fixed with paraformaldehyde (Electron Microscopy Sciences, 15710, 4% final concentration) for 30 min, permeabilized with wash buffer (1×PBS+0.1% Triton X-100) for 30 min and blocked with Odyssey blocking buffer (Li—COR 927-70001) for 1 hour, all at room temperature (RT). Phospho-ERK antibody (CST 4370L) was diluted 1:500 in Odyssey T20 (PBS) antibody diluent (Li—COR 927-75001) and incubated with cells overnight at 4° C. The next day, plates were washed 5× with wash buffer, incubated with IRDye 800 CW, Goat anti-Rabbit secondary antibody (Li—COR 926-32211, 1:800) and DRAQ5 (CST 4084L, 1:5,000) diluted in Odyssey T20 (PBS) antibody diluent for 1 hour, washed 5×, and imaged on an Odyssey CLx imaging system.
For data analysis, signal intensities from 800 (phosphor-ERK) and 700 (DRAQ5) channels were extracted, and phospho-ERK signals were normalized to DRAQ5 signals for each well and percent of blank control values were computed. Data were then imported into Graphpad Prism to compute half-maximal inhibitory concentrations (IC50) using a 4-parameter variable slope model. Z-factor for each plate was computed from signals derived from wells treated with either DMSO or 5 μM of control compound. AGS pERK ICW (Method B) IC50 (uM) values of selected compounds are depicted in Table 2 with compounds having a value ≥0.001 uM to 0.01 uM as ++++; ≥0.01 uM to 0.1 uM as +++; ≥0.1 uM to 1 uM as ++; ≥1 uM to 10 uM as + and ≥10 uM as NA.

[3] = target: GST-tagged KRAS-G12D (2-169) (Homo sapiens, UniProt P01116, G12D); test: Nucleotide exchange assay (NEA), SOS-mediated, HTRF, KRAS G12D; format: biochemical; conditions: Table 4; IC50 extracted at 30 min; 20 nM SOScat; read-out: NEA G12D IC50
Chain of GST-tagged KRAS-G12D (2-169) (P01116 2-169 isoform P01116-2 G12D): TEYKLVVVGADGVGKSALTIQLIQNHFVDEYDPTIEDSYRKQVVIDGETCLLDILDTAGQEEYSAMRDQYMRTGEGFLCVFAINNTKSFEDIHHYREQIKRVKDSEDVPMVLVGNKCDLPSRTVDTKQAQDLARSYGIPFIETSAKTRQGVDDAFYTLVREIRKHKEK
Summary of the method: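 Compound preincubated 1 h at RT with 0.25 nM GST-KRAS-G12D (2-169) and anti-GST Tb donor, then 20 nM SOS1cat (564-1049) and 150 nM GTP-DY-647P1 added; pH 7.3 HEPES buffer with MgCl2 and DTT. HTRF monitored at RT; % inhibition versus DMSO and no-SOS blank, 4-parameter IC50 taken at 30 min.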

Chain of GST-tagged KRAS-G12V (2-169) (P01116 2-169 isoform P01116-2 G12V): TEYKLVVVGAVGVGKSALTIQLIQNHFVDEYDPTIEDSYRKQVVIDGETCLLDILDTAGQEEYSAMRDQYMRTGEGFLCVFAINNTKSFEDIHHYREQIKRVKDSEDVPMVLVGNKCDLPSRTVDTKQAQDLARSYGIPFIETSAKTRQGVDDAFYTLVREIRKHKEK

`CC(CC#N)N(C)c1nc(OC[C@@]23CCCN2C[C@H](F)C3)nc(N2CC3(C2)SCc2sc(N)c(C#N)c23)n1` (stereo partly drawn) [Compound 249, 2-amino-1′-[4-[(2-cyano-1-methyl-ethyl)-methyl-amino]-6-[[(2R,8S)-2-fluoro-1,2,3,5,6,7-hexahydropyrrolizin-8-yl]methoxy]-1,3,5-triazin-2-yl]spiro[6H-thieno[2,3-c]thiophene-4,3′-azetidine]-3-carbonitrile] was tested, and the IC50 [1] was < 10 nM, the IC50 [2] was 1000 to 20000 nM and the IC50 [3] was < 10 nM.
`N#Cc1c(N)sc2c1C1(CN(c3nc(OC[C@@]45CCCN4C[C@H](F)C5)nc(N(CCO)CC4(C#N)CC4)n3)C1)SC2` [Compound 239, 2-amino-1′-[4-[(1-cyanocyclopropyl)methyl-(2-hydroxyethyl)amino]-6-[[(2R,8S)-2-fluoro-1,2,3,5,6,7-hexahydropyrrolizin-8-yl]methoxy]-1,3,5-triazin-2-yl]spiro[6H-thieno[2,3-c]thiophene-4,3′-azetidine]-3-carbonitrile] was tested, and the IC50 [1] was < 10 nM, the IC50 [2] was 100 to 1000 nM and the IC50 [3] was < 10 nM.
With `CC(c1c[nH]nn1)N(CC#N)c1nc(OC[C@@]23CCCN2C[C@H](F)C3)nc(N2CC3(C2)SCc2sc(N)c(C#N)c23)n1` (stereo partly drawn) [Compound 250, 2-amino-1′-[4-[cyanomethyl-[1-(1H-triazol-4-yl)ethyl]amino]-6-[[(2R,8S)-2-fluoro-1,2,3,5,6,7-hexahydropyrrolizin-8-yl]methoxy]-1,3,5-triazin-2-yl]spiro[6H-thieno[3,4-b]thiophene-4,3′-azetidine]-3-carbonitrile] the IC50 [1] was < 10 nM, the IC50 [2] was 100 to 1000 nM and the IC50 [3] was < 10 nM.
`C#CCN(CC#N)c1nc(OC[C@@]23CCCN2C[C@H](F)C3)nc(N2CC3(C2)SCc2sc(N)c(C#N)c23)n1` [Compound 243, 2-amino-1′-[4-[cyanomethyl(prop-2-ynyl)amino]-6-[[(2R,8S)-2-fluoro-1,2,3,5,6,7-hexahydropyrrolizin-8-yl]methoxy]-1,3,5-triazin-2-yl]spiro[6H-thieno[3,4-b]thiophene-4,3′-azetidine]-3-carbonitrile] was tested, and the IC50 [1] was < 10 nM, the IC50 [2] was 100 to 1000 nM and the IC50 [3] was < 10 nM.
In the case of `CCN(c1nc(OC[C@@]23CCCN2C[C@H](F)C3)nc(N2CC3(C2)SCc2sc(N)c(C#N)c23)n1)C(C)CC#N` (stereo partly drawn) [Compound 254, 2-amino-1′-[4-[(2-cyano-1-methyl-ethyl)-ethyl-amino]-6-[[(2R,8S)-2-fluoro-1,2,3,5,6,7-hexahydropyrrolizin-8-yl]methoxy]-1,3,5-triazin-2-yl]spiro[6H-thieno[3,4-b]thiophene-4,3′-azetidine]-3-carbonitrile; formic acid], the IC50 [1] is reported as < 10 nM, the IC50 [2] is reported as 100 to 1000 nM and the IC50 [3] is reported as < 10 nM.
For `N#CCN(Cc1c[nH]nn1)c1nc(OC[C@@]23CCCN2C[C@H](F)C3)nc(N2CC3(C2)SCc2sc(N)c(C#N)c23)n1` [Compound 245, 2-amino-1′-[4-[cyanomethyl(1H-triazol-4-ylmethyl)amino]-6-[[(2R,8S)-2-fluoro-1,2,3,5,6,7-hexahydropyrrolizin-8-yl]methoxy]-1,3,5-triazin-2-yl]spiro[6H-thieno[3,4-b]thiophene-4,3′-azetidine]-3-carbonitrile], the IC50 [1] was < 10 nM, the IC50 [2] was 1000 to 20000 nM and the IC50 [3] was < 10 nM.
With `N#Cc1c(N)sc2c1C1(CN(c3nc(OC[C@@]45CCCN4C[C@H](F)C5)nc(N4[C@H]5CC[C@]4(CO)COC5)n3)C1)SC2` [Compound 200, 2′-amino-1-(4-(((2R,7aS)-2-fluorotetrahydro-1H-pyrrolizin-7a(5H)-yl)methoxy)-6-((1S,5S)-1-(hydroxymethyl)-3-oxa-8-azabicyclo[3.2.1]octan-8-yl)-1,3,5-triazin-2-yl)-6′H-spiro[azetidine-3,4′-thieno[3,4-b]thiophene]-3′-carbonitrile] the IC50 [1] was < 10 nM, the IC50 [2] was 100 to 1000 nM and the IC50 [3] was 10 to 100 nM.
In the case of `CCN(CC#N)c1nc(OC[C@@]23CCCN2C[C@H](F)C3)nc(N2CC3(C2)SCc2sc(N)c(C#N)c23)n1` [Compound 237, 2-amino-1′-[4-[cyanomethyl(ethyl)amino]-6-[[(2R,8S)-2-fluoro-1,2,3,5,6,7-hexahydropyrrolizin-8-yl]methoxy]-1,3,5-triazin-2-yl]spiro[6H-thieno[3,4-b]thiophene-4,3′-azetidine]-3-carbonitrile], the IC50 [1] is reported as < 10 nM, the IC50 [2] is reported as 10 to 100 nM and the IC50 [3] is reported as < 10 nM.
In the case of `CCN(c1nc(OC[C@@]23CCCN2C[C@H](F)C3)nc(N2CC3(C2)SCc2sc(N)c(C#N)c23)n1)[C@H](C)C(N)=O` [Compound 235, (2R)-2-[[4-(2-amino-3-cyano-spiro[6H-thieno[3,4-b]thiophene-4,3′-azetidine]-1′-yl)-6-[[(2R,8S)-2-fluoro-1,2,3,5,6,7-hexahydropyrrolizin-8-yl]methoxy]-1,3,5-triazin-2-yl]-ethyl-amino]propanamide], the IC50 [1] is reported as < 10 nM, the IC50 [2] is reported as 100 to 1000 nM and the IC50 [3] is reported as < 10 nM.
For `N#Cc1c(N)sc2c1C1(CN(c3nc(OC[C@@]45CCCN4C[C@H](F)C5)nc(N(CC(=O)O)C4(C#N)CC4)n3)C1)SC2` [Compound 259, 2-[[4-(2-amino-3-cyano-spiro[6H-thieno[3,4-b]thiophene-4,3′-azetidine]-1′-yl)-6-[[(2R,8S)-2-fluoro-1,2,3,5,6,7-hexahydropyrrolizin-8-yl]methoxy]-1,3,5-triazin-2-yl]-(1-cyanocyclopropyl)amino]acetic acid], the IC50 [2] was 1000 to 20000 nM.
Work on `N#Cc1c(N)sc2c1C1(CC2)CN(c2nc(OCC3(CN4CCOCC4)CC3)nc(N3CCCC(O)(CO)C3)n2)C1` (stereo not drawn) [Compound 95, 2-amino-1′-[4-[3-hydroxy-3-(hydroxymethyl)-1-piperidyl]-6-[[1-(morpholinomethyl)cyclopropyl]methoxy]-1,3,5-triazin-2-yl]spiro[5,6-dihydrocyclopenta[b]thiophene-4,3′-azetidine]-3-carbonitrile] yielded an IC50 [1] of 10 to 100 nM and an IC50 [3] of 10 to 100 nM.
Work on `N#Cc1c(N)sc2c1C1(CN(c3nc(OC[C@@]45CCCN4C[C@H](F)C5)nc(N4CCC5(CC4)COC5=O)n3)C1)SC2` [Compound 283, 2-amino-1′-[4-[[(2R,8S)-2-fluoro-1,2,3,5,6,7-hexahydropyrrolizin-8-yl]methoxy]-6-(3-oxo-2-oxa-7-azaspiro[3.5]nonan-7-yl)-1,3,5-triazin-2-yl]spiro[6H-thieno[3,4-b]thiophene-4,3′-azetidine]-3-carbonitrile] yielded an IC50 [1] of 100 to 1000 nM and an IC50 [3] of 100 to 1000 nM.
Work on `N#Cc1c(N)sc2c1C1(CN(c3nc(OC[C@@]45CCCN4C[C@H](F)C5)nc(Oc4cn[nH]c4)n3)C1)SC2` [Compound 164, 2-amino-1′-[4-[[(2R,8S)-2-fluoro-1,2,3,5,6,7-hexahydropyrrolizin-8-yl]methoxy]-6-(1H-pyrazol-4-yloxy)-1,3,5-triazin-2-yl]spiro[6H-thieno[3,4-b]thiophene-4,3′-azetidine]-3-carbonitrile] yielded an IC50 [1] of 10 to 100 nM and an IC50 [3] of 100 to 1000 nM.
With `C[C@]1(O)C[C@@H](O)CN(c2nc(OC[C@@]34CCCN3C[C@H](F)C4)nc(N3CC4(CCc5sc(N)c(C#N)c54)C3)n2)C1` [Compound 46, 2-amino-1′-[4-[(3S,5R)-3,5-dihydroxy-3-methyl-1-piperidyl]-6-[[(2R,8S)-2-fluoro-1,2,3,5,6,7-hexahydropyrrolizin-8-yl]methoxy]-1,3,5-triazin-2-yl]spiro[5,6-dihydrocyclopenta[b]thiophene-4,3′-azetidine]-3-carbonitrile] the IC50 [1] was 10 to 100 nM and the IC50 [3] was 100 to 1000 nM.
